Measured values as given in US9499550B2 (BRISTOL-MYERS SQUIBB COMPANY, priority 2012, dated 2016).

Key:
[1] = test system: HCV genotype 1a (H77 strain) replicon in HUH-7 cells; assay: HCV replicon luciferase reporter assay, genotype 1a; format: cell-based; conditions: Hepatitis C virus, Huh-7, 72 h, HCV genotype 1a replicon luciferase, 3 days incubation, read-out: LE_1a (EC50, range)
How it was run: (§1)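 Replicon inhibition for both genotypes was measured as Renilla luciferase signal (EnduRen, 7.5 μM final, 2 h) after 3-day, 37° C exposure of replicon-bearing HUH-7 cells in 4% FCS DMEM, 0.5% DMSO. The 1b construct carries S1179I; the 1a H77 construct carries P1496L and S2204I. Twenty-point, 3-fold dilutions were fitted four-parametrically for EC50, and CC50 was taken from multiplexed Cell Titer-Blue.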

[2] = test system: HCV genotype 1b (Con1) replicon in HUH-7 cells; assay: HCV replicon luciferase reporter assay, genotype 1b; format: cell-based; conditions: Hepatitis C virus, Huh-7, 72 h, HCV genotype 1b replicon luciferase, 3 days incubation, read-out: LE_1b (EC50, range)
How it was run: as §1

Row | Compound | EC50 [1] | EC50 [2]
1 | CCCOc1cnc(O[C@@H]2C[C@H]3C(=O)N[C@]4(C(=O)NS(=O)(=O)C5CC5)C[C@H]4/C=C\CC[C@@H](C)C[C@@H](C)[C@H](NC(=O)O[C@@H]4C[C@@H]5C[C@@H]5C4)C(=O)N3C2)c2ccccc12 [Compound 5093, (1R,3r,5S)-bicyclo[3.1.0]hexan-3-yl((2R,6S,7R,9R,13aS,14aR,16aS,Z)-14a-((cyclopropylsulfonyl)carbamoyl)-7,9-dimethyl-5,16-dioxo-2-((4-propoxyisoquinolin-1-yl)oxy)-1,2,3,5,6,7,8,9,10,11,13a,14,14a,15,16,16a-hexadecahydrocyclopropa[e]pyrrolo[1,2-a][1,4]diazacyclopentadecin-6-yl)carbamate] | 4.82 to 103 nM | < 5.46 nM
2 | CCCOc1cnc(O[C@@H]2C[C@H]3C(=O)N[C@]4(C(=O)NS(=O)(=O)C5CC5)C[C@H]4/C=C\CC[C@H](C)C[C@@H](C)[C@H](NC(=O)O[C@H](C)C(F)(F)F)C(=O)N3C2)c2ccccc12 [Compound 5094, (R)-1,1,1-trifluoropropan-2-yl((2R,6S,7R,9S,13aS,14aR,16aS,Z)-14a-((cyclopropylsulfonyl)carbamoyl)-7,9-dimethyl-5,16-dioxo-2-((4-propoxyisoquinolin-1-yl)oxy)-1,2,3,5,6,7,8,9,10,11,13a,14,14a,15,16,16a-hexadecahydrocyclopropa[e]pyrrolo[1,2-a][1,4]diazacyclopentadecin-6-yl)carbamate] | > 87.4 nM | > 87.4 nM
3 | CCCOc1cnc(O[C@@H]2C[C@H]3C(=O)N[C@]4(C(=O)NS(=O)(=O)C5CC5)C[C@H]4/C=C\CC[C@@H](C)C[C@@H](C)[C@H](NC(=O)O[C@H](C)C(F)(F)F)C(=O)N3C2)c2ccccc12 [Compound 5095, (R)-1,1,1-trifluoropropan-2-yl((2R,6S,7R,9R,13aS,14aR,16aS,Z)-14a-((cyclopropylsulfonyl)carbamoyl)-7,9-dimethyl-5,16-dioxo-2-((4-propoxyisoquinolin-1-yl)oxy)-1,2,3,5,6,7,8,9,10,11,13a,14,14a,15,16,16a-hexadecahydrocyclopropa[e]pyrrolo[1,2-a][1,4]diazacyclopentadecin-6-yl)carbamate] | 4.82 to 103 nM | 4.82 to 103 nM
4 | CCCOc1cnc(O[C@@H]2C[C@H]3C(=O)N[C@]4(C(=O)NS(=O)(=O)C5CC5)C[C@H]4/C=C\CC[C@H](C)C[C@@H](C)[C@H](NC(=O)OCC4(C)CC4)C(=O)N3C2)c2ccccc12 [Compound 5096, (1-methylcyclopropyl)methyl ((2R,6S,7R,9S,13aS,14aR,16aS,Z)-14a-((cyclopropylsulfonyl)carbamoyl)-7,9-dimethyl-5,16-dioxo-2-((4-propoxyisoquinolin-1-yl)oxy)-1,2,3,5,6,7,8,9,10,11,13a,14,14a,15,16,16a-hexadecahydrocyclopropa[e]pyrrolo[1,2-a][1,4]diazacyclopentadecin-6-yl)carbamate] | > 87.4 nM | 4.82 to 103 nM
5 | CCCOc1cnc(O[C@@H]2C[C@H]3C(=O)N[C@]4(C(=O)NS(=O)(=O)C5CC5)C[C@H]4/C=C\CC[C@@H](C)C[C@@H](C)[C@H](NC(=O)OCC4(C)CC4)C(=O)N3C2)c2ccccc12 [Compound 5097, (1-methylcyclopropyl)methyl ((2R,6S,7R,9R,13aS,14aR,16aS,Z)-14a-((cyclopropylsulfonyl)carbamoyl)-7,9-dimethyl-5,16-dioxo-2-((4-propoxyisoquinolin-1-yl)oxy)-1,2,3,5,6,7,8,9,10,11,13a,14,14a,15,16,16a-hexadecahydrocyclopropa[e]pyrrolo[1,2-a][1,4]diazacyclopentadecin-6-yl)carbamate] | < 5.46 nM | < 5.46 nM
6 | CCCOc1cnc(O[C@@H]2C[C@H]3C(=O)N[C@]4(C(=O)NS(=O)(=O)C5CC5)C[C@H]4/C=C\CC[C@H](C)C[C@@H](C)[C@H](NC(=O)NC(C)(C)C(F)(F)F)C(=O)N3C2)c2ccccc12 [Compound 5098, (2R,6S,7R,9S,13aS,14aR,16aS,Z)—N-(cyclopropylsulfonyl)-7,9-dimethyl-5,16-dioxo-2-((4-propoxyisoquinolin-1-yl)oxy)-6-(3-(1,1,1-trifluoro-2-methylpropan-2-yl)ureido)-1,2,3,5,6,7,8,9,10,11,13a,14,14a,15,16,16a-hexadecahydrocyclopropa[e]pyrrolo[1,2-a][1,4]diazacyclopentadecine-14a-carboxamide] | > 87.4 nM | > 87.4 nM
7 | CCCOc1cnc(O[C@@H]2C[C@H]3C(=O)N[C@]4(C(=O)NS(=O)(=O)C5CC5)C[C@H]4/C=C\CC[C@@H](C)C[C@@H](C)[C@H](NC(=O)NC(C)(C)C(F)(F)F)C(=O)N3C2)c2ccccc12 [Compound 5099, (2R,6S,7R,9R,13aS,14aR,16aS,Z)—N-(cyclopropylsulfonyl)-7,9-dimethyl-5,16-dioxo-2-((4-propoxyisoquinolin-1-yl)oxy)-6-(3-(1,1,1-trifluoro-2-methylpropan-2-yl)ureido)-1,2,3,5,6,7,8,9,10,11,13a,14,14a,15,16,16a-hexadecahydrocyclopropa[e]pyrrolo[1,2-a][1,4]diazacyclopentadecine-14a-carboxamide] | < 5.46 nM | < 5.46 nM
8 | [2H]C([2H])([2H])Oc1cnc(O[C@@H]2C[C@H]3C(=O)N[C@]4(C(=O)NS(=O)(=O)C5(C)CC5)C[C@H]4/C=C\CC[C@H](C)C[C@@H](C)[C@H](NC(=O)OC(C)(C)C)C(=O)N3C2)c2ccccc12 [Compound 5100, tert-butyl ((2R,6S,7R,9S,13aS,14aR,16aS,Z)-7,9-dimethyl-14a-(((1-methylcyclopropyl)sulfonyl)carbamoyl)-5,16-dioxo-2-((4-(trideuteromethoxy)isoquinolin-1-yl)oxy)-1,2,3,5,6,7,8,9,10,11,13a,14,14a,15,16,16a-hexadecahydrocyclopropa[e]pyrrolo[1,2-a][1,4]diazacyclopentadecin-6-yl)carbamate] | < 5.46 nM | < 5.46 nM
9 | [2H]C([2H])([2H])Oc1cnc(O[C@@H]2C[C@H]3C(=O)N[C@]4(C(=O)NS(=O)(=O)C5(C)CC5)C[C@H]4/C=C\CC[C@H](C)C[C@@H](C)[C@H](NC(=O)OC(C)(C)C(F)(F)F)C(=O)N3C2)c2ccccc12 [Compound 5102, 1,1,1-trifluoro-2-methylpropan-2-yl((2R,6S,7R,9S,13aS,14aR,16aS,Z)-7,9-dimethyl-14a-(((1-methylcyclopropyl)sulfonyl)carbamoyl)-5,16-dioxo-2-((4-(trideuteromethoxy)isoquinolin-1-yl)oxy)-1,2,3,5,6,7,8,9,10,11,13a,14,14a,15,16,16a-hexadecahydrocyclopropa[e]pyrrolo[1,2-a][1,4]diazacyclopentadecin-6-yl)carbamate] | < 5.46 nM | < 5.46 nM
10 | [2H]C([2H])([2H])Oc1cnc(O[C@@H]2C[C@H]3C(=O)N[C@]4(C(=O)NS(=O)(=O)C5(C)CC5)C[C@H]4/C=C\CC[C@@H](C)C[C@@H](C)[C@H](NC(=O)OC(C)(C)C(F)(F)F)C(=O)N3C2)c2ccccc12 [Compound 5103, 1,1,1-trifluoro-2-methylpropan-2-yl((2R,6S,7R,9R,13aS,14aR,16aS,Z)-7,9-dimethyl-14a-(((1-methylcyclopropyl)sulfonyl)carbamoyl)-5,16-dioxo-2-((4-(trideuteromethoxy)isoquinolin-1-yl)oxy)-1,2,3,5,6,7,8,9,10,11,13a,14,14a,15,16,16a-hexadecahydrocyclopropa[e]pyrrolo[1,2-a][1,4]diazacyclopentadecin-6-yl)carbamate] | < 5.46 nM | < 5.46 nM
11 | [2H]C([2H])([2H])Oc1cnc(O[C@@H]2C[C@H]3C(=O)N[C@]4(C(=O)NS(=O)(=O)C5(C)CC5)C[C@H]4/C=C\CC[C@H](C)C[C@@H](C)[C@H](NC(=O)OC(C([2H])([2H])[2H])(C([2H])([2H])[2H])C(F)(F)F)C(=O)N3C2)c2ccccc12 [Compound 5104, 1,1,1,3,3,3-hexadeutero-2-(trifluoromethyl)propan-2-yl((2R,6S,7R,9S,13aS,14aR,16aS,Z)-7,9-dimethyl-14a-(((1-methylcyclopropyl)sulfonyl)carbamoyl)-5,16-dioxo-2-((4-(trideuteromethoxy)isoquinolin-1-yl)oxy)-1,2,3,5,6,7,8,9,10,11,13a,14,14a,15,16,16a-hexadecahydrocyclopropa[e]pyrrolo[1,2-a][1,4]diazacyclopentadecin-6-yl)carbamate] | < 5.46 nM | < 5.46 nM
12 | [2H]C([2H])([2H])Oc1cnc(O[C@@H]2C[C@H]3C(=O)N[C@]4(C(=O)NS(=O)(=O)C5(C)CC5)C[C@H]4/C=C\CC[C@@H](C)C[C@@H](C)[C@H](NC(=O)OC(C([2H])([2H])[2H])(C([2H])([2H])[2H])C(F)(F)F)C(=O)N3C2)c2ccccc12 [Compound 5105, 1,1,1,3,3,3-hexadeutero-2-(trifluoromethyl)propan-2-yl((2R,6S,7R,9R,13aS,14aR,16aS,Z)-7,9-dimethyl-14a-(((1-methylcyclopropyl)sulfonyl)carbamoyl)-5,16-dioxo-2-((4-(trideuteromethoxy)isoquinolin-1-yl)oxy)-1,2,3,5,6,7,8,9,10,11,13a,14,14a,15,16,16a-hexadecahydrocyclopropa[e]pyrrolo[1,2-a][1,4]diazacyclopentadecin-6-yl)carbamate] | < 5.46 nM | < 5.46 nM
13 | [2H]C([2H])([2H])Oc1cnc(O[C@@H]2C[C@H]3C(=O)N[C@]4(C(=O)NS(=O)(=O)C5(C)CC5)C[C@H]4/C=C\CC[C@H](C)C[C@@H](C)[C@H](NC(=O)NC(C)(C)C)C(=O)N3C2)c2ccccc12 [Compound 5106, (2R,6S,7R,9S,13aS,14aR,16aS,Z)-6-(3-(tert-butyl)ureido)-7,9-dimethyl-N-((1-methylcyclopropyl)sulfonyl)-5,16-dioxo-2-((4-(trideuteromethoxy)isoquinolin-1-yl)oxy)-1,2,3,5,6,7,8,9,10,11,13a,14,14a,15,16,16a-hexadecahydrocyclopropa[e]pyrrolo[1,2-a][1,4]diazacyclopentadecine-14a-carboxamide] | < 5.46 nM | < 5.46 nM
